Results: PMC11413854, “Reversible Control of Native GluN2B-Containing NMDA Receptors with Visible Light” (ACS Chemical Neuroscience, 2024)
Where “and” joins values, the source holds several entries; their conditions need not be identical. Equal values may be shown once. Read-outs that look alike come from different tables or passages of the source.

Target: T1, GluN1/GluN2B NMDA receptors (UniProt P35439+Q01097)
T1 construct: expressed in transfected cells; host or cells: Xenopus laevis oocytes (nuclear cDNA injection)
Assay: TEVC electrophysiology on Xenopus oocytes expressing wt GluN1/GluN2B NMDARs
Format: cell-based, rat GluN1, mouse GluN2B
Conditions: for inhibition of GluN1/GluN2B wt: 1 µM trans-OptoNAM-3 (dark); for IC50: 100 µM glutamate + glycine, Xenopus oocytes; for remaining activity at 1 µM: [OptoNAM-3] 1 µM; for remaining activity at 3 µM: [OptoNAM-3] 3 µM; for remaining activity at 5 µM: [OptoNAM-3] 5 µM; for remaining activity at 0.025 µM: [OptoNAM-3] 0.025 µM; for remaining activity at 0.05 µM: [OptoNAM-3] 0.05 µM; for remaining activity at 0.22 µM: [OptoNAM-3] 0.22 µM; for remaining activity at 30 µM: [OptoNAM-3] 30 µM; for Relative current for theoretical DRC 9% trans: theoretical for 350 nm PSS
Text: The activity of OptoNAM-3 was functionally monitored by electrophysiology on Xenopus oocytes (see Methods). To assess the light-dependent effect, we tested the activities of the dark PSS (mostly trans) and the UV PSS (mostly cis, see above) separately. For each concentration, we prepared a solution divided into two samples: one in which the compound was kept in the dark for the duration of the experiment (dark PSS state); and the other that was preilluminated with either 350 or 365 nm light (350 or 365 nm PSS) and then kept away from the light for the duration of the experiment in order to avoid photoisomerization of the compounds by ambient light (see Methods). […] We generated dose–response curves of OptoNAM-3 dark and UV PSS on wild-type (wt) GluN1/GluN2B NMDA receptors (Figure 3A) in the presence of saturating concentrations of agonists (100 μM glutamate and glycine).
We used cDNA coding for rat GluN1–1a (named GluN1 herein) (GenBank: U08261.1), rat GluN2A (GenBank: D13211.1), mouse GluN2B (GenBank: D10651.2), rat GluA1 flop (GenBank: M36418.2), and rat Myc-GluA2(Q)-flip (GenBank: AF164344.1) cloned into pcDNA3-based expression plasmids. GluK2 (GenBank: Z11548.1) corresponds to the fully RNA-edited version.[80] The GluN2B-ΔNTD construct is from ref[45] and GluN2B–N615K is from ref[81]. Single mutants GluN2B-Q110G and GluN1-L135H were from ref[19]. The GluA2 cDNA contains a Myc tag ([…]) fused between the signal peptide and the N-terminus sequences, and the GluA2 subunit is […] for its Q/R/N site (GluA2(Q)) to allow permeation of homomeric GluA2 receptors.[2] cDNAs coding for rat GluN2C (GenBank: M91563.1) and GluN2D subunits (GenBank: L31611.1) were in prK5 plasmids.
Oocytes from Xenopus laevis were used for heterologous expression of recombinant NMDA receptors studied using a two-electrode voltage clamp (TEVC). Female Xenopus laevis were housed and ovary bags harvested according to the European Union guidelines (husbandry authorizations #C75–05–31 and #D75–05–31; project authorizations #05137.02; and Apafis #28867–2020121814485893). Fragments of ovary bags were also purchased from the “Centre de Ressources Biologiques Xenopes” (now TEFOR, Paris Saclay, France) and from the European Xenopus Resource Center (EXRC, Portsmouth, UK). Xenopus laevis oocytes were harvested and prepared as previously described in ref[82].
Expression of recombinant NMDA receptors was obtained by oocyte nuclear coinjection of 37 nL of a mixture of cDNAs (at 30 ng/μL) coding for GluN1–1a and various GluN2 subunits (ratio 1:1). The protocol in ref[43] was followed for the expression of GluN1/GluN2A/GluN2B triheteromers. The oocytes were transferred in 96-well plates filled with Barth solution (in mM: 88 NaCl, 1 KCl, 0.33 Ca(NO3)2, 0.41 CaCl2, 0.82 MgSO4, 2.4 NaHCO3, and 7.5 HEPES, pH adjusted to 7.3 with NaOH), supplemented with gentamicin ([…]) and 50 μM APV, a selective NMDA receptor antagonist. Plates were then stored at 18 °C for 24 h for GluN1/GluN2A expression and for 48––72 h for the expression of GluN1/Glu2B, GluN1/GluN2A/GluN2B, and mutants.
TEVC recordings were performed 1–3 days following injection. TEVC recordings were performed using an Oocyte Clamp amplifier OC-725 (Warner Instruments) and computer-controlled via a 1440A Digidata (Molecular Devices). Currents were sampled at 100 Hz and low-pass-filtered at 20 Hz using an 8-pole Bessel filter (900 Series, Frequency Devices Inc.).

[1] = GluN1/GluN2B wt, OptoNAM-3 350 nm PSS, read-out: Relative current (IOpto/I0)
[2] = GluN1/GluN2B wt, OptoNAM-3 365 nm PSS, read-out: Relative current (IOpto/I0)
[3] = GluN1/GluN2B wt, OptoNAM-3 dark PSS (trans), read-out: Relative current (IOpto/I0)

T1 sequence (Q01097 27-1482, other chains not shown): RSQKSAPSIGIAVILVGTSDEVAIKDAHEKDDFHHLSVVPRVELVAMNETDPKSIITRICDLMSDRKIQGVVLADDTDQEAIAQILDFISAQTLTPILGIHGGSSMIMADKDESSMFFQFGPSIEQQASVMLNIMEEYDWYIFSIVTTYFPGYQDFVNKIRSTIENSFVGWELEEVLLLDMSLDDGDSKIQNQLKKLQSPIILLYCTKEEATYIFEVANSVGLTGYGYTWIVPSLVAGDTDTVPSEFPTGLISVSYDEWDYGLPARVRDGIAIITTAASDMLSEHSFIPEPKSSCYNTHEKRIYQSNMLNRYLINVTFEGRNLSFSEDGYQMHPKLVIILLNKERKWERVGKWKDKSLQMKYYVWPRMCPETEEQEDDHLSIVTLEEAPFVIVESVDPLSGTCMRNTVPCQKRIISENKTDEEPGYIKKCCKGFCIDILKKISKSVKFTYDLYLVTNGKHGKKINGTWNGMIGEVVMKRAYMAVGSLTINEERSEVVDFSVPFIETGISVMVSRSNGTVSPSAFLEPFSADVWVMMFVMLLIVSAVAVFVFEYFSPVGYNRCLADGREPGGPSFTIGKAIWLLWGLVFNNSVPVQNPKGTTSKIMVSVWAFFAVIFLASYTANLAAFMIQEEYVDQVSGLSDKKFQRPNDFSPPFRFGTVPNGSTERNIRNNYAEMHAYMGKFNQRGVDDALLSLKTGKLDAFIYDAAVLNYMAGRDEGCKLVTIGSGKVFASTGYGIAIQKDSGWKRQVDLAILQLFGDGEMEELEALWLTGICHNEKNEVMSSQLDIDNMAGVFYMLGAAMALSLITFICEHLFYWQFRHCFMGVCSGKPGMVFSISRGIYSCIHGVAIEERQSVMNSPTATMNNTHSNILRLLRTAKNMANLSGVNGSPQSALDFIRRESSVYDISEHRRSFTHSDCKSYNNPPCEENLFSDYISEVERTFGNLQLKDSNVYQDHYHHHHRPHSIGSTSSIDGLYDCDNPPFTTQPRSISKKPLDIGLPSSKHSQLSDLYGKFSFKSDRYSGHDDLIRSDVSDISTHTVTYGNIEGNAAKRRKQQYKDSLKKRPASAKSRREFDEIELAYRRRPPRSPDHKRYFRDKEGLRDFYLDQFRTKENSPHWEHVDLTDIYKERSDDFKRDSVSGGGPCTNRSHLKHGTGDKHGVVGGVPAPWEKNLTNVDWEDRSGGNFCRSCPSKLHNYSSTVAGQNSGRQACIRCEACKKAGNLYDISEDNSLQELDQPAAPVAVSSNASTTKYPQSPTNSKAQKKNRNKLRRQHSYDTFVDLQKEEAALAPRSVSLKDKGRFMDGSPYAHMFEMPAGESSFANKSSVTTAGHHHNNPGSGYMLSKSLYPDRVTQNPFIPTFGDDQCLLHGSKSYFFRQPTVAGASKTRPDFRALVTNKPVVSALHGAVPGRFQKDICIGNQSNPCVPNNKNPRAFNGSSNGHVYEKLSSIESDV

Relative current for theoretical 100% cis (0.025 µM, calculated from the 365 nm PSS curve): 0.953
Relative current for theoretical 100% cis (0.050 µM, calculated from the 365 nm PSS curve): 0.945
Relative current for theoretical 100% cis (0.125 µM, calculated from the 350 nm PSS curve): 0.949
Relative current for theoretical 100% cis (0.125 µM, calculated from the 365 nm PSS curve): 0.988
Relative current for theoretical 100% cis (0.220 µM, calculated from the 365 nm PSS curve): 1.000
Relative current for theoretical 100% cis (0.300 µM, calculated from the 350 nm PSS curve): 1.005
Relative current for theoretical 100% cis (0.300 µM, calculated from the 365 nm PSS curve): 0.993
Relative current for theoretical 100% cis (0.470 µM, calculated from the 350 nm PSS curve): 1.025
Relative current for theoretical 100% cis (0.500 µM, calculated from the 365 nm PSS curve): 0.891
inhibition of GluN1/GluN2B wt: 69.305%
inhibition of GluN1/GluN2B wt (listed as trans-OptoNAM-3): 69% ± 2%
Relative current for theoretical 100% cis (1.000 µM, calculated from the 350 nm PSS curve): 1.085
Relative current for theoretical 100% cis (1.000 µM, calculated from the 365 nm PSS curve): 0.988
Relative current for theoretical 100% cis (2.000 µM, calculated from the 350 nm PSS curve): 1.000
Relative current for theoretical 100% cis (2.000 µM, calculated from the 365 nm PSS curve): 0.933
Relative current for theoretical 100% cis (3.000 µM, calculated from the 350 nm PSS curve): 1.043
Relative current for theoretical 100% cis (3.000 µM, calculated from the 365 nm PSS curve): 0.959
Relative current for theoretical 100% cis (5.000 µM, calculated from the 350 nm PSS curve): 0.994
Relative current for theoretical 100% cis (5.000 µM, calculated from the 365 nm PSS curve): 0.960
inhibition at 10 µM (10 µM OptoNAM-3 365 nm PSS, construct GluN1/GluN2B, read-out: Inhibition (%)): 68%
Inhibition, individual values (10 µM OptoNAM-3 dark PSS (trans) as headed, GluN1/GluN2B, single cells, second block): 0.6438 and 0.6778 and 0.6833 and 0.7763
inhibition at 10 µM (10 µM OptoNAM-3 dark PSS (trans) as headed, GluN1/GluN2B, single cells, second block, read-out: Inhibition, individual values): 63.8%
Inhibition, individual values (10 µM OptoNAM-3 dark PSS (trans), GluN1/GluN2B, single cells, first block): 0.9137 and 0.9546 and 0.9747
inhibition at 10 µM (10 µM OptoNAM-3 dark PSS (trans), GluN1/GluN2B, single cells, first block, read-out: Inhibition, individual values): 92.7%
inhibition at 10 µM (10 µM OptoNAM-3 dark PSS (trans), construct GluN1/GluN2B, read-out: Inhibition (%)): 94%
Relative current for theoretical 100% cis (30.000 µM, calculated from the 365 nm PSS curve): 0.961
IC50 (350 nm PSS, read-out: IC50 on GluN1/GluN2B receptors, preilluminated with 350 nm): 4.4 µM and 4.38 µM
IC50 (365 nm PSS, read-out: IC50 on GluN1/GluN2B receptors, preilluminated with 365 nm): 1.7 µM
remaining activity at 0.125 µM (GluN1/GluN2B wt, OptoNAM-3 350 nm PSS, [OptoNAM-3] 0.125 µM, read-out: Relative current (IOpto/I0)): 90.7%
remaining activity at 0.3 µM (GluN1/GluN2B wt, OptoNAM-3 350 nm PSS, [OptoNAM-3] 0.3 µM, read-out: Relative current (IOpto/I0)): 91.8%
remaining activity at 0.47 µM (GluN1/GluN2B wt, OptoNAM-3 350 nm PSS, [OptoNAM-3] 0.47 µM, read-out: Relative current (IOpto/I0)): 90%
remaining activity at 1 µM [1]: 86%
remaining activity at 2 µM (GluN1/GluN2B wt, OptoNAM-3 350 nm PSS, [OptoNAM-3] 2 µM, read-out: Relative current (IOpto/I0)): 65.6%
remaining activity at 3 µM [1]: 61.3%
remaining activity at 5 µM [1]: 44.6%
remaining activity at 0.025 µM [2]: 93.3%
remaining activity at 0.05 µM [2]: 91%
remaining activity at 0.125 µM (GluN1/GluN2B wt, OptoNAM-3 365 nm PSS, [OptoNAM-3] 0.125 µM, read-out: Relative current (IOpto/I0)): 91.2%
remaining activity at 0.22 µM [2]: 88%
remaining activity at 0.3 µM (GluN1/GluN2B wt, OptoNAM-3 365 nm PSS, [OptoNAM-3] 0.3 µM, read-out: Relative current (IOpto/I0)): 84.1%
remaining activity at 0.5 µM (GluN1/GluN2B wt, OptoNAM-3 365 nm PSS, [OptoNAM-3] 0.5 µM, read-out: Relative current (IOpto/I0)): 66.6%
remaining activity at 1 µM [2]: 64.4%
remaining activity at 2 µM (GluN1/GluN2B wt, OptoNAM-3 365 nm PSS, [OptoNAM-3] 2 µM, read-out: Relative current (IOpto/I0)): 43.3%
remaining activity at 3 µM [2]: 37.5%
remaining activity at 5 µM [2]: 26.7%
remaining activity at 30 µM [2]: 3.4%
remaining activity at 0.025 µM [3]: 88.7%
remaining activity at 0.05 µM [3]: 82.7%
remaining activity at 0.125 µM (GluN1/GluN2B wt, OptoNAM-3 dark PSS (trans), [OptoNAM-3] 0.125 µM, read-out: Relative current (IOpto/I0)): 75.8%
remaining activity at 0.22 µM [3]: 59.2%
remaining activity at 0.3 µM (GluN1/GluN2B wt, OptoNAM-3 dark PSS (trans), [OptoNAM-3] 0.3 µM (Sup. Fig. 3A/B/E), read-out: Relative current (IOpto/I0)): 58.1%
remaining activity at 1 µM [3]: 30.7%
remaining activity at 2 µM (GluN1/GluN2B wt, OptoNAM-3 dark PSS (trans), [OptoNAM-3] 2 µM (Sup. Fig. 3A/B/E), read-out: Relative current (IOpto/I0)): 14.1%
remaining activity at 3 µM [3]: 9.8%
remaining activity at 5 µM [3]: 9.2%
remaining activity at 30 µM [3]: 0.423%
Relative current for theoretical DRC 9% trans (GluN1/GluN2B wt, [OptoNAM-3] 0.125 µM): 0.958
Relative current for theoretical DRC 9% trans (GluN1/GluN2B wt, [OptoNAM-3] 0.3 µM): 0.913
Relative current for theoretical DRC 9% trans (GluN1/GluN2B wt, [OptoNAM-3] 0.47 µM): 0.875
Structure (SMILES): c1ccc(/N=N/c2ccc(CCNc3ccncc3)cc2)cc1 [OptoNAM-3, (E)-N-(4-(Phenyldiazenyl)phenethyl)pyridin-4-amine]
